Laboratory results as given in patent US11028061B2, “Modulators of myocyte lipid accumulation and insulin resistance and methods of use thereof” (Sanford Burnham Prebys Medical Discovery Institute, priority 2015, dated 2021).

What was measured:
TXNIP = TXNIP protein levels by western blot; format: cell-based; conditions: human myotubes
Protocol: FIGS. 4A-C show downregulation of TXNIP and ARRDC4 expression by SBI-477. (FIG. 4A) TXNIP and ARRDC4 mRNA levels as determined by quantitative RT-PCR in human myotubes treated with SBI-477 (10 μM) or DGAT1 inhibitor (DGATi, […]) for 24 hours in the absence or presence of 100 μM oleate (n=4). Expression is shown relative to vehicle/BSA treatment. (FIG. 4B) TXNIP gene expression following exposure to a dose range of SBI-477 for 24 hours (n=4). (FIG. 4C) Left, Effect of SBI-477 on TXNIP protein levels as determined by western blot analysis by SBI-477. Right, Quantitation of the TXNIP western blot data is shown (n=5). *p<0.05 vs. Vehicle/BSA control, †p<0.05 vs. Vehicle/oleate by one-way ANOVA with Bonferroni post hoc test. The data are shown as mean±SD.
Cells were lysed in the RIPA buffer containing 1% NP-40, 5 mM Na4P2O7, 1 mM EDTA, 20 mM NaF, 2 mM Na3VO4, 1× cOmplete™ protease inhibitor (Roche) and 1 mM phenylmethylsulfonyl fluoride. Whole cell lysates were subjected to SDS-PAGE and transferred to a nitrocellulose membrane. The blots were hybridized with specific antibodies and developed with enhanced chemiluminescence kit (Pierce). […] Protein quantification was performed using FluorChemQ (Alpha Innotech) and normalized to […]-actin or total protein where indicated.

SCD-1 = SCD-1 (Homo sapiens, UniProt O00767); assay: Direct inhibition of SCD-1 activity; format: biochemical; conditions: data not shown
Chain of SCD-1 (O00767 whole entry, species assumed): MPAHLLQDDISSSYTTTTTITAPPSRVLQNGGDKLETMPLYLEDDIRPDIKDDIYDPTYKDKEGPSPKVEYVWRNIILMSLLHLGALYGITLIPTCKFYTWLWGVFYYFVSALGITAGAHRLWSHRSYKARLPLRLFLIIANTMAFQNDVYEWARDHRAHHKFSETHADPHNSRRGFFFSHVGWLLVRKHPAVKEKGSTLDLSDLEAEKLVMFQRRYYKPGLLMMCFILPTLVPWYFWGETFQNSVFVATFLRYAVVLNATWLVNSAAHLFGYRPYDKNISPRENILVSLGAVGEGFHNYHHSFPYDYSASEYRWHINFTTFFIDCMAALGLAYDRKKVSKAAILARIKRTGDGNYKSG

[1] = test system: insulin receptor substrate 1 (IRS-1); assay: Western blot of IRS-1 phosphorylation; format: cell-based, human; conditions: 24 hours
Protocol: FIGS. 3A, B, C, E and F show SBI-477 stimulation of glucose uptake and activates insulin signaling in the absence of insulin. Human skeletal myotubes were incubated with SBI-477 at the indicated concentration for 24 hours and then treated with or without insulin (100 nM) for 30 minutes. Glucose ([3H]-2-deoxyglucose, 2-DG) uptake (FIG. 3A) and glycogen synthesis rates (FIGS. 3B and 3C) were measured (n=5) as described in Methods. *p<0.05 vs. Vehicle, no insulin, †p<0.05 vs. Vehicle/insulin by two-way ANOVA with Tukey's post hoc test. (FIG. 3E) Western blot analysis of human myotubes treated with SBI-477 for 24 hours was performed to determine the effect on steps of the insulin signaling pathway using specific Akt and IRS-1 phosphorylation sites as endpoints. Insulin treatment (100 nM) for 30 minutes was used as positive control. (FIG. 3F) Quantitation of the western blot data in […] is shown (n=5). *p<0.05 or **p<0.01 vs. Vehicle by one-way ANOVA with Bonferroni post hoc test. The data represent mean±SD.
Cells were lysed in the RIPA buffer containing 1% NP-40, 5 mM Na4P2O7, 1 mM EDTA, 20 mM NaF, 2 mM Na3VO4, 1× cOmplete™ protease inhibitor (Roche) and 1 mM phenylmethylsulfonyl fluoride. […] Protein quantification was performed using FluorChemQ (Alpha Innotech) and normalized to […]-actin or total protein where indicated.

human skeletal myotubes [2] = assay: Glycogen synthesis assay in human skeletal myotubes; format: cell-based; conditions: 24 hours
Protocol: Human skeletal myotubes were incubated with or without SBI-477 and then treated with or without insulin (100 nM) for 30 minutes. Glycogen synthesis rates were then measured as described (Halse, et al., J Biol Chem. 1999; 274(2):776-780). Briefly, differentiated primary human skeletal myotubes were treated with SBI-477 as described in the glucose uptake assay. Following incubation with SBI-477, cells were serum starved in α-MEM for 1 hour. The medium was replaced with α-MEM supplemented with [14C]-D-glucose (1 μCi/mL) for three hours and then treated in the absence or presence of insulin (100 nM) for 30 minutes. After incubation, the cells were washed three times with ice-cold PBS and then lysed in 30% potassium hydroxide (KOH) containing 6 mg/mL glycogen. For glycogen precipitation, the samples were added to ice-cold 100% ethanol for 18 hours at 4° C. The samples were centrifuged at 8,500×g for 10 minutes at 4° C. and the supernatant was discarded. After one wash with 75% ethanol, the glycogen precipitate was dissolved in distilled water. [14C]-D-glucose incorporated to glycogen was counted by liquid scintillation analyzer (PerkinElmer) and normalized to total protein.

DGAT1/2 = assay: Direct inhibition of DGAT1/2 activity; format: biochemical; conditions: data not shown
human skeletal myotubes [3] = assay: Quantitative lipidomic analyses and TAG biosynthesis pathway modeling; format: cell-based; conditions: oleate-loaded myotubes
Protocol: Quantitative lipidomic analyses was performed on human skeletal myotubes exposed to bovine albumin serum (BSA) or 100 μM oleate in the presence of DMSO vehicle (white bars) or 10 μM SBI-477 (black bars) for 24 hours.
Primary human myotubes were treated with BSA or 100 μM oleate with 10 μM SBI-477 or a vehicle control for 24 hours. The cells were added to […] in an Eppendorf tube and homogenized for 1 minute using a disposable soft tissue homogenizer. A 25 μL aliquot was used to determine the protein content (BCA protein assay kit, Thermo Scientific, Rockford, Ill.). The remaining homogenate was accurately transferred into a disposable glass culture test tube, and a mixture of lipid internal standards was added prior to lipid extraction for quantification of all reported lipid species. Lipid extraction was performed by using a modified Bligh and Dyer procedure as described previously (Wang and Han, 2014). Each lipid extract was resuspended into a volume of 500 μL of chloroform/methanol (1:1, v/v) per mg of protein and flushed with nitrogen, capped, and stored at −20° C. for lipid analysis. For ESI direct infusion analysis, lipid extract was further diluted to a final concentration of ˜500 fmol/μL, and the mass spectrometric analysis was performed on a QqQ mass spectrometer (Thermo TSQ VANTAGE, San Jose, Calif.) equipped with an automated nanospray device (TriVersa NanoMate, Advion Bioscience Ltd., Ithaca, N.Y.).
Intracellular TAG can be formed through reacylation of DAG species generated from several pathways including a de novo glycerolphosphate biosynthetic pathway that involves dephosphorylation of phosphatidic acid (DAGPA), reacylation of monoacylglycerol (DAGMAG), and to a lesser extent, hydrolysis of phosphatidyl inositol (DAGPI). […] This approach uses the individual TAG ion profile, as determined by mass spectrometry, to predict the relative contribution of each pathway to the overall cellular TAG pool. […]

Structure (SMILES): COc1ccc(-c2csc(NC(=O)c3ccc(OCC(=O)N4CCOCC4)c(OC)c3)n2)cc1 [Cpd. 7, 3-methoxy-N-(4-(4-methoxyphenyl)thiazol-2-yl)-4-(2-morpholino-2-oxoethoxy)benzamide]
- TXNIP protein levels (TXNIP): reduced by SBI-477 in dose-dependent manner
- Direct inhibition of SCD-1 activity (SCD-1): not found that SBI-477 directly inhibits
- IRS-1 phosphorylation at serine sites 636/639 [1]: decreased
- Tyrosine phosphorylation of IRS-1 ([1]; absence of insulin): increased
- Glycogen synthesis rates (human skeletal myotubes [2]): enhanced by SBI-477 treatment in a dose dependent manner
- Direct inhibition of DGAT1/2 activity (DGAT1/2): not found that SBI-477 directly inhibits
- Levels of ceramide and total sphingomyelin (human skeletal myotubes [3]): not significantly altered
- DAG species levels (human skeletal myotubes [3]; 24 hour exposure): reduced
- TAG species levels (human skeletal myotubes [3]; 24 hour exposure): reducing all TAG species measured
